From patent US20220395487A1, “RIG-I INNATE IMMUNE RECEPTOR ANTAGONISTS AND METHODS OF USING SAME” (YALE UNIVERSITY, priority 2019, published 2022)

What was measured:
RIG-I [1] = target: T1, RIG-I (Homo sapiens, UniProt O95786); test: NADH-coupled ATPase assay; assay type: biochemical; parameters: The native, full-length protein was expressed and purified using methods adapted from published protocols; SUMO (pET-SUMO vector; captured on Ni-NTA) (N, cleaved yes); made in house; host or cells: Rosetta II(DE3) Escherichia coli; conditions: for IC50: NADH-coupled ATPase assay; for RIG-I ATPase inhibition, result in words: SAR discussion of Table 1 compounds
T1 sequence (O95786 1-925): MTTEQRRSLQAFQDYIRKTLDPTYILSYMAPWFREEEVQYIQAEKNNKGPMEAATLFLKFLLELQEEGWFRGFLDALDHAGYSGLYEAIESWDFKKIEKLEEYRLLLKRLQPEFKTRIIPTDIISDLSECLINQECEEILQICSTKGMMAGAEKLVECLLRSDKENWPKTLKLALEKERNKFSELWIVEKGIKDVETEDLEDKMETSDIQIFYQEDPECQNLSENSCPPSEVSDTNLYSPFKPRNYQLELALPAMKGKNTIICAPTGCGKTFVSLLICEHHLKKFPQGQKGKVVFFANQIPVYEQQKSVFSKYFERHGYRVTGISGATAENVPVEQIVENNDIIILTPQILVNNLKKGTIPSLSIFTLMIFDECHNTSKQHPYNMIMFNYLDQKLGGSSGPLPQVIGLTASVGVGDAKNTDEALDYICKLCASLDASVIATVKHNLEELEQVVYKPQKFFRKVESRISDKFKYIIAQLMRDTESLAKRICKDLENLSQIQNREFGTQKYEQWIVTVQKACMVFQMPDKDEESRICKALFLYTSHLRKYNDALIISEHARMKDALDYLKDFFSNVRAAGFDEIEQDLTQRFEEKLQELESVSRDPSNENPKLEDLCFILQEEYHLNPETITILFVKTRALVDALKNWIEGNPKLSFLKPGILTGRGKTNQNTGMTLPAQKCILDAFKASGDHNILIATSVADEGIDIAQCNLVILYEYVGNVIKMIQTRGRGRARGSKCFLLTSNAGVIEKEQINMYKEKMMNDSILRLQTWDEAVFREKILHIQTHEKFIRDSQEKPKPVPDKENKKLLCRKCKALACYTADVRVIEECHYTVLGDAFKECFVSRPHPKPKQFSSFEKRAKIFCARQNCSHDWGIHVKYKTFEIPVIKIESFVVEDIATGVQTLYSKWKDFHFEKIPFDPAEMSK
Experimental: In this case, RIG-I was activated by a well-defined synthetic RNA hairpin duplex (SLR10-OH), which was added to a final concentration of 250 nM. A coupled assay mixture consisting of 1 mM NADH, 100 U/ml lactic dehydrogenase, 500 U/ml pyruvate kinase, 2.5 mM phosphoenol pyruvic acid was added to the sample. A 12-point serial dilution of the compound of interest was added in a DMSO vehicle such that DMSO concentrations were kept at a constant 2% over the entire drug dilution. The final concentration ranges for drug dilutions varied from compound to compound based on the potency of the small molecule in question. The dilutions covered ranges from 0 to as high as 100 μM (see association figures). Samples were incubated for at least 1 hour at RT. Reactions were initiated by the addition of a 1:1 ATP/MgCl2 mix to a final concentration of 5 mM.
The rate of ATP hydrolysis was determined indirectly by monitoring the conversion of NADH to NAD^+ that results in a loss of sample absorbance at 340 nm. Absorbance was measured over a 20 min time course using a sweeping read at 10 second intervals and a gain setting of 120 on a Biotek Synergy H1 Plate Reader. Mean kobs values were extrapolated for each time course and plotted against drug concentration, then fit to Eq. (1) to determine IC50 values. Each point was a based on two trials of three biological replicates with error bars representing the Standard deviation.

RIG-I [2] = target: T1, RIG-I; test: ADP-Glo ATPase assay; assay type: biochemical; parameters: The native, full-length protein was expressed and purified using methods adapted from published protocols; SUMO (pET-SUMO vector; captured on Ni-NTA) (N, cleaved yes); made in house; host or cells: Rosetta II(DE3) Escherichia coli; conditions: Poly I:C RNA activation, read-out: apparent IC50, RIG-I ATPase inhibition
Experimental: For the ADP-Glo assay system (V9101, Promega), RIG-I protein was diluted to 10 nM in assay buffer (25 mM MOPS pH 7.4, 150 mM NaCl, 2 mM DTT, and 2 mM Mg^2). For HTS experiments, Poly I:C RNA was used for RIG-I activation, and added to a final concentration of 0.4 μg/ml. To initiate the ATPase reactions, ATP was added to a final concentration of 200 μM. To test compounds, a 12-point serial dilution of the small molecule of interest was combined with DMSO, keeping the DMSO levels at a constant 1% throughout the entire drug dilution. Final drug concentrations ranged from 0 to 200 μM. The final volume for reaction was 20 μL per well, measured in a Corning 384-well plate (Plate ID: 3658). Reactions were allowed to proceed at room temperature for one hour, after which 2.5 μL of the ADP-Glo Reagent was added to each well. Samples were incubated at 25° C. for 45 min to terminate the ATPase reaction and deplete the remaining ATP. Next, 5 μL of Kinase Detection Reagent was added to each well in order to convert the ADP product back to ATP, which is then used as a substrate for the luminescent reporter, which was read on a Biotek Synergy HI Plate Reader.
Slopes from the twelve point curves were fit to a non-competitive, four variable inhibition curve in order to obtain IC50 values:
where X is Log10 [compound], Y is luminescence, Top and Bottom are the plateaus at Ymin and Ymax. […]

RIG-I [3] = target: T1, RIG-I; test: IFN-β/Firefly dual-luciferase reporter assay in HEK 293T cells transfected with hRIG-I; assay type: cell-based; conditions: HEK293T cells, SLR14 challenge
Experimental: Two different assays were used for evaluating RIG-I inhibition in cells. In the first assay, HEK 293T cells were used to test the influence of compounds on RIG-I signaling activity while simultaneously reporting on relative toxicity. In this case, inhibitor compounds were introduced via growth media replacement rather than by direct addition to cell plates. Specifically, HEK 293T cells (which express RIG-I only under the control of a transfected plasmid) were grown and maintained in T75 flasks containing Dulbecco's Modified Eagle Medium, DMEM (Life Technologies) supplemented with 10% heat-inactivated fetal bovine serum (Hyclone) and non-essential amino acids (Life Technologies). For the IFN-β induction assays, 0.5 ml of cells at 65,000 cells/ml was placed (seeded) in 24-well plates. After 24 h, each well of cells was transfected with 5 ng WT pUNO-hRIG-I (Invivogen), 6 ng pRL-TK constitutive Renilla luciferase reporter plasmid (Promega) and 150 ng of an IFN-β/Firefly luciferase reporter plasmid using the Lipofectamine 2000 transfection reagent (Life Technologies) following the manufacturer's protocol. Protein expression was allowed to proceed for 24 hours. In parallel, a six-point dilution series of each compound of interest was made in a DMSO vehicle and then diluted further into DMEM such that a constant DMSO concentration of 1% is maintained over the entire drug dilution. The DMEM growth media was aspirated from each well of cells and replaced with DMEM that contains the drug. After 30 minutes, the cells were challenged by transfection with 1 μg of the synthetic stem-loop RNA (SLR14) in Lipofectamine 2000. After 5-6 hours, cells were harvested for luminescence analysis in the following manner: Growth media was aspirated from each well, and 100 μl of passive lysis buffer (Promega) was added. Lysis proceeded for 15 min at room temperature. Lysates were clarified by centrifugation, and 20 μl samples of the supernatant were transferred to a 96-well assay plate for analysis using the Dual-Luciferase Reporter Assay System (Promega). Luminescence was measured using a Biotek Synergy H1 plate reader. The resulting Firefly luciferase activity (i.e. the induction of IFN-0) was normalized to the activity of the constitutively expressed Renilla luciferase to account for differences in confluency, transfection efficiency and cell viability across sample wells.

[4] = SLR10-OH activated, mean ± standard deviation, 3 measurements, read-out: IC50

Row | SMILES | IC50 (RIG-I [1]; [4]) | further results
1 | CC1(C)C(=O)N=C2C1=C(O)C(=O)c1ccccc12 [RIG001, 4-Hydroxy-3,3-dimethyl-2H1,3H,5H1-benzo[g]indole-2,5-dione] |  | IC50 (RIG-I [1]; read-out: IC50 value in the coupled assay system): 12000 ± 1000 nM; IC50 (RIG-I [2]): 19000 ± 3000 nM
2 | COc1c2c(c3ccccc3c1OC)N(C)C(=O)C2(C)C [RIG003, 4,5-Dimethoxy-1,3,3-trimethyl-1H,2H,3H-benzo[g]indol-2-one] |  | inhibition of RIG-I signaling / IFN induction, result in words (RIG-I [3]): did not influence levels of IFN induction or RIG-I response
3 | COc1c2c(c3ccccc3c1OC)NC(=O)C2(C)C [RIG004, 4,5-Dimethoxy-3,3-dimethyl-1H,2H,3H-benzo[g]indol-2-one] |  | RIG-I ATPase inhibition, result in words (RIG-I [1]): loss of function
4 | CC1(C)C(=O)N=C2C1=C(OCc1ccccc1)C(=O)c1ccccc12 [RIG005, 4-Benzyloxy-3,3-dimethyl-2H,3H,5H-benzo[g]indole-2,5-dione] | 2600 ± 200 nM | 
5 | CC(C)COC1=C2C(=NC(=O)C2(C)C)c2ccccc2C1=O [RIG006, 4-(2,2-Dimethylethoxy)-3,3-dimethyl-2H,3H,5H-benzo[g]indole-2,5-dione] | 2100 ± 200 nM | 
6 | CC1(C)C(=O)N=C2C1=C(OCc1nc3ccccc3[nH]1)C(=O)c1ccccc12 [RIG008, 4-(1H-1,3-Benzodiazol-2-ylmethoxy)-3,3-dimethyl-2H,3H,5H-benzo[g]indole-2,5-dione] | 1800 ± 300 nM | 
7 | O=C1C(OCc2ccccc2)=C2C(=NC(=O)C23CCCCC3)c2ccccc21 [RIG010, 4-(Benzyloxy)-2,5-dihydrospiro[benzo[g]indole-3,1′-cyclohexane]-2,5-dione] | 4700 ± 300 nM | 
8 | CCC1(CC)C(=O)N=C2C1=C(O)C(=O)c1ccccc12 [RIG011, 3,3-Diethyl-4-hydroxy-2H,3H,5H-benzo[g]indole-2,5-dione] | 890 ± 40 nM | RIG-I ATPase inhibition, result in words (RIG-I [1]): nanomolar IC50 values

Further lines, with some results ahead:

Row | IC50 (RIG-I [1]; [4]) | SMILES | further results
9 | 6300 ± 600 nM | COC1=C2C(=NC(=O)C2(C)C)c2ccccc2C1=O [RIG002, 4-Methoxy-3,3-dimethyl-2H,3H,5H-benzo[g]indole-2,5-dione] | 
10 | 1800 ± 100 nM | CCOC1=C2C(=NC(=O)C2(C)C)c2ccccc2C1=O [RIG007, 4-Ethoxy-3,3-dimethyl-2H,3H,5H-benzo[g]indole-2,5-dione] | 
11 | 2400 ± 300 nM | O=C1C(O)=C2C(=NC(=O)C23CCCCC3)c2ccccc21 [RIG009, 4-Hydroxy-2,5-dihydrospiro[benzo[g]indole-3,1′-cyclohexane]-2,5-dione] | 
12 | 2100 ± 200 nM | CC1(C)C(=O)N=C2C1=C(OCc1ccc3ccccc3c1)C(=O)c1ccccc12 [RIG013, 3,3-Dimethyl-4-(naphthalen-2-ylmethoxy)-2H,3H,5H-benzo[g]indole-2,5-dione] | IC50 (RIG-I [3]; compound in growth medium, read-out: IC50, inhibition of RIG-I signaling (IFN induction luciferase)): 1360 nM
